Measured values: patent US20230293407A1, “Compositions Comprising (Bio)-Alkanediols with Antimicrobials for Product Protection” (Symrise AG, priority 2020, published 2023)
One block for each compound: values may come before it.

How the values were obtained:
[1] = maximum water solubility of alkanediols, visual observation; assay type: physicochemical; settings: ambient temperature after 24 h storage at 5° C.
Description: The water solubility of a substance is the saturation mass concentration of the substance in water at a given temperature. The determination of the solubility in water relates to essentially pure substances which are stable in water and not volatile. The determination of the water solubility of the alkanediols is further described in the following Example 2.
For the determination of the maximum water solubility of an alkanediol, water and different concentrations of the respective alkanediol were blended by stirring. […] The determination of whether the alkanediol has dissolved in water is based entirely on visual observation.

Pseudomonas aeruginosa = experiment: preservation efficacy test (PET), European Pharmacopoeia 5.1.3; assay type: cell-based; settings: for PA germ count, 2 days / PA germ count, 7 days / PA germ count, 14 days / PA germ count, 28 days: substance at given % in test formulation
Staphylococcus aureus = experiment: as above; assay type: cell-based
Escherichia coli = experiment: as above; assay type: cell-based; settings: for number of microorganisms, 7 days / number of microorganisms, 14 days / number of microorganisms, 28 days / number of microorganisms, 2 days: Escherichia coli (EC)
Candida albicans = experiment: as above; assay type: cell-based
yeast = experiment: preservation efficacy test (PET), overview of the effect against yeast; assay type: cell-based, Candida albicans; settings: PET in a shampoo formulation, result in words on Table 8
Aspergillus brasiliensis = experiment: preservation efficacy test (PET), European Pharmacopoeia 5.1.3; assay type: cell-based
[2] = 2 days after inoculation, o/w emulsion (Table 53)
[3] = 7 days after inoculation, o/w emulsion (Table 53)
[4] = 14 days after inoculation, o/w emulsion (Table 53)
[5] = 28 days after inoculation, o/w emulsion (Table 53)
[6] = 7 days after inoculation, substance at given % in test formulation
[7] = 14 days after inoculation, substance at given % in test formulation
[8] = 28 days after inoculation, substance at given % in test formulation
[9] = PET in shampoo, Staphylococcus aureus (SA), 14 days after inoculation
[10] = PET in shampoo, Staphylococcus aureus (SA), 28 days after inoculation
[11] = PET, Staphylococcus aureus (SA), 28 days after inoculation
[12] = PET in shampoo, Candida albicans (CA), 28 days after inoculation
[13] = PET, Staphylococcus aureus (SA), 7 days after inoculation
[14] = PET, Staphylococcus aureus (SA), 14 days after inoculation
[15] = PET, Candida albicans (CA), 28 days after inoculation

Maximum solubility in water [1]: 0.5 % by weight
Compound: CCCCCCC(O)CO (stereo not shown) [Hydrolite ® 8]

Maximum solubility in water [1]: 50 % by weight
Compound: CCCCC(O)CO (stereo not shown) [Hydrolite ® 6]

Maximum solubility in water [1]: 3.6 % by weight
Compound: CCCCC(O)C(C)O (stereo not shown) [2,3-heptanediol]
germ count PA, 2 days (Pseudomonas aeruginosa; [2]): 1
PA germ count, 2 days (Pseudomonas aeruginosa; 2 days after inoculation): 1
germ count PA, 7 days (Pseudomonas aeruginosa; [3]): 1
PA germ count, 7 days (Pseudomonas aeruginosa; 7 days after inoculation): 1
germ count PA, 14 days (Pseudomonas aeruginosa; [4]): 1
PA germ count, 14 days (Pseudomonas aeruginosa; 14 days after inoculation): 1
germ count PA, 28 days (Pseudomonas aeruginosa; [5]): 1
PA germ count, 28 days (Pseudomonas aeruginosa; 28 days after inoculation): 1
germ count SA, 7 days (Staphylococcus aureus; [3]): 790.000
SA germ count, 7 days (Staphylococcus aureus; [6]): 790.000
germ count SA, 14 days (Staphylococcus aureus; [4]): 55
SA germ count, 14 days (Staphylococcus aureus; [7]): 55
germ count SA, 28 days (Staphylococcus aureus; [5]): 1
SA germ count, 28 days (Staphylococcus aureus; [8]): 1
number of microorganisms, 14 days (Staphylococcus aureus; [9]): 1
number of microorganisms, 28 days (Staphylococcus aureus; [10]): 1
number of microorganisms, 28 days (Staphylococcus aureus; [11]): 1
germ count EC, 2 days (Escherichia coli; [2]): 170.000
EC germ count, 2 days (Escherichia coli; 2 days after inoculation, substance at given % in test formulation): 170.000
germ count EC, 7 days (Escherichia coli; [3]): 1.600
EC germ count, 7 days (Escherichia coli; [6]): 1.600
germ count EC, 14 days (Escherichia coli; [4]): 82
EC germ count, 14 days (Escherichia coli; [7]): 82
germ count EC, 28 days (Escherichia coli; [5]): 1
EC germ count, 28 days (Escherichia coli; [8]): 1
number of microorganisms, 7 days (Escherichia coli; PET in shampoo, 7 days after inoculation, listed as 0,4% 2,3 Heptandiol): 100.000
number of microorganisms, 14 days (Escherichia coli; PET in shampoo, 14 days after inoculation, listed as 0,4% 2,3 Heptandiol): 75.000
number of microorganisms, 28 days (Escherichia coli; PET in shampoo, 28 days after inoculation, listed as 0,4% 2,3 Heptandiol): 380.000
number of microorganisms, 28 days (Escherichia coli; PET, 28 days after inoculation): 1
germ count CA, 28 days (Candida albicans; [5]): 370.000
CA germ count, 28 days (Candida albicans; [8]): 370.000
number of microorganisms, 28 days (Candida albicans; [12]): 1
antimicrobial efficacy against yeast (yeast): antimicrobial efficacy

Maximum solubility in water [1]: 0.1 % by weight
Compound: CCCCCCCC(O)CO (stereo not shown) [1,2-Nonanediol]
number of microorganisms, 2 days (Staphylococcus aureus; PET, Staphylococcus aureus (SA), 2 days after inoculation): 2.300
number of microorganisms, 7 days (Staphylococcus aureus; [13]): 1
number of microorganisms, 14 days (Staphylococcus aureus; [14]): 1
number of microorganisms, 28 days (Staphylococcus aureus; [11]): 1
number of microorganisms, 2 days (Escherichia coli; PET, 2 days after inoculation): 6.700
number of microorganisms, 7 days (Escherichia coli; PET, 7 days after inoculation): 1
number of microorganisms, 14 days (Escherichia coli; PET, 14 days after inoculation): 1
number of microorganisms, 28 days (Escherichia coli; PET, 28 days after inoculation): 1
number of microorganisms, 7 days (Candida albicans; PET, Candida albicans (CA), 7 days after inoculation): 120.000
number of microorganisms, 14 days (Candida albicans; PET, Candida albicans (CA), 14 days after inoculation): 890
number of microorganisms, 28 days (Candida albicans; [15]): 1
number of microorganisms, 28 days (Aspergillus brasiliensis; PET, Aspergillus brasiliensis (AB), 28 days after inoculation): 900.000

Maximum solubility in water [1]: 1.5 % by weight
Compound: CCCCCC(O)C(C)O (stereo not shown) [2,3-octanediol]
PA germ count, 2 days (Pseudomonas aeruginosa; 2 days after inoculation): 1
PA germ count, 7 days (Pseudomonas aeruginosa; 7 days after inoculation): 1
PA germ count, 14 days (Pseudomonas aeruginosa; 14 days after inoculation): 1
PA germ count, 28 days (Pseudomonas aeruginosa; 28 days after inoculation): 1
count at 2 days (Pseudomonas aeruginosa; PA, 2 days after inoculation, use concentration in label): 1
count at 7 days (Pseudomonas aeruginosa; PA, 7 days after inoculation, use concentration in label): 1
count at 14 days (Pseudomonas aeruginosa; PA, 14 days after inoculation, use concentration in label): 1
count at 28 days (Pseudomonas aeruginosa; PA, 28 days after inoculation, use concentration in label): 1
SA germ count, 14 days (Staphylococcus aureus; [7]): 1
SA germ count, 28 days (Staphylococcus aureus; [8]): 1
number of microorganisms, 7 days (Staphylococcus aureus; PET in shampoo, Staphylococcus aureus (SA), 7 days after inoculation): 1
number of microorganisms, 14 days (Staphylococcus aureus; [9]): 1
number of microorganisms, 28 days (Staphylococcus aureus; [10]): 1
number of microorganisms, 7 days (Staphylococcus aureus; [13]): 84.000
number of microorganisms, 14 days (Staphylococcus aureus; [14]): 1
number of microorganisms, 28 days (Staphylococcus aureus; [11]): 1
count at 2 days (Staphylococcus aureus; SA, 2 days after inoculation, use concentration in label): 520.000
count at 7 days (Staphylococcus aureus; SA, 7 days after inoculation, use concentration in label): 9.300
count at 14 days (Staphylococcus aureus; SA, 14 days after inoculation, use concentration in label): 1
count at 28 days (Staphylococcus aureus; SA, 28 days after inoculation, use concentration in label): 1
count at 2 days (Escherichia coli; EC, 2 days after inoculation, use concentration in label): 130.000
count at 7 days (Escherichia coli; EC, 7 days after inoculation, use concentration in label): 19.000
count at 14 days (Escherichia coli; EC, 14 days after inoculation, use concentration in label): 290
count at 28 days (Escherichia coli; EC, 28 days after inoculation, use concentration in label): 18
number of microorganisms, 28 days (Escherichia coli; PET in shampoo, 28 days after inoculation, listed as 0,4% 2,3 Octanediol): 600.000
number of microorganisms, 2 days (Escherichia coli; PET, 2 days after inoculation): 48.000
number of microorganisms, 7 days (Escherichia coli; PET, 7 days after inoculation): 290
number of microorganisms, 14 days (Escherichia coli; PET, 14 days after inoculation): 1
number of microorganisms, 28 days (Escherichia coli; PET, 28 days after inoculation): 1
count at 2 days (Candida albicans; CA, 2 days after inoculation, use concentration in label): 660.000
count at 7 days (Candida albicans; CA, 7 days after inoculation, use concentration in label): 210.000
count at 14 days (Candida albicans; CA, 14 days after inoculation, use concentration in label): 120.000
count at 28 days (Candida albicans; CA, 28 days after inoculation, use concentration in label): 11.000
number of microorganisms, 28 days (Candida albicans; [12]): 1
number of microorganisms, 28 days (Candida albicans; [15]): 390.000
count at 2 days (Aspergillus brasiliensis; AB, 2 days after inoculation, use concentration in label): 940.000
count at 7 days (Aspergillus brasiliensis; AB, 7 days after inoculation, use concentration in label): 660.000
count at 14 days (Aspergillus brasiliensis; AB, 14 days after inoculation, use concentration in label): 820.000
count at 28 days (Aspergillus brasiliensis; AB, 28 days after inoculation, use concentration in label): 560.000
number of microorganisms, 14 days (Aspergillus brasiliensis; PET in shampoo, Aspergillus brasiliensis (AB), 14 days after inoculation, listed as 0,1% 2,3 Octanediol): 250.000
antimicrobial efficacy against yeast (yeast): antimicrobial efficacy
